This is an account of results in patent publication US12473295B2, “Substituted straight chain spiro derivatives” (Janssen Pharmaceutica NV, priority 2019, dated 2025).

Experiment [1] concerns the target menin/MLL (terbium chelate-labeled menin, FITC-MBM1 peptide) (Homo sapiens (Human), UniProt O00255). In words: Menin/MLL homogenous time-resolved fluorescence (HTRF) assay.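 Further: IC50 from percent inhibition of HTRF signal, normalized between wells without competitor and wells with a saturating competitor that displaces FITC-MBM1 from His-tagged menin.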 In kind it is binding.
The subject of a further experiment is OCI-AML3 cells. In words: Proliferation assay (spheroid growth, 8 days), OCI-AML3. In kind it is cell-based, human. The conditions noted are these: OCI-AML3, 8 days. The essentials:
(§1)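 200 MOLM14 (MLL-AF9), 200 OCI-AML3 (NPM1c) or 300 KO-52 (MLL wildtype) cells were grown as spheroids in ultra-low attachment wells with compound, 0.3% DMSO, for 8 days at 37 °C. Confluence was imaged on day 8, normalized to DMSO and top-dose reference compound. IC50 came from a variable-slope fit constrained 0–100%.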

The next experiment deals with KO-52 cells. In words: Proliferation assay (spheroid growth, 8 days), KO-52 control cell line. In kind it is cell-based, human. The conditions noted are these: read-out: spheroid assay_OneTime KO-52 IC50. Summed up: as §1
The test system of the next experiment is MOLM14 cells. Kind of experiment: Proliferation assay (spheroid growth, 8 days), MOLM14.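 Further: spheroid size read as confluence by live-cell imaging, compounds added at a range of concentrations with 0.3% DMSO, DMSO-treated wells = 0%, highest reference dose = low control.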 In kind it is cell-based, human. To be noted: MOLM14, 8 days, read-out: spheroid assay_OneTime MOLM14 IC50.
The next experiment has as its system MEIS1 mRNA. Kind of experiment: MEIS1 mRNA expression assay (Quantigene Singleplex) in MOLM14 cells.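 Further: MEIS1 transcript levels read by probe hybridization and normalized to RPL28 mRNA, with IC50 fitted to fold changes across a rising compound concentration series.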 In kind it is cell-based, human. The conditions noted are these: 48 hours incubation.
The mark [2] stands for this setting: HTRF-30 min incubation IC50, 30 min incubation.
Where [3] appears, read: read-out: HTRF-30 min incubation IC50, 30 min incubation.

Structures can show the parent of a compound that is named as a salt. Where two headings read alike, the source gives them in different places.

menin/MLL (terbium chelate-labeled menin, FITC-MBM1 peptide), sequence (O00255 other isoform, or with tags, fused parts or gaps): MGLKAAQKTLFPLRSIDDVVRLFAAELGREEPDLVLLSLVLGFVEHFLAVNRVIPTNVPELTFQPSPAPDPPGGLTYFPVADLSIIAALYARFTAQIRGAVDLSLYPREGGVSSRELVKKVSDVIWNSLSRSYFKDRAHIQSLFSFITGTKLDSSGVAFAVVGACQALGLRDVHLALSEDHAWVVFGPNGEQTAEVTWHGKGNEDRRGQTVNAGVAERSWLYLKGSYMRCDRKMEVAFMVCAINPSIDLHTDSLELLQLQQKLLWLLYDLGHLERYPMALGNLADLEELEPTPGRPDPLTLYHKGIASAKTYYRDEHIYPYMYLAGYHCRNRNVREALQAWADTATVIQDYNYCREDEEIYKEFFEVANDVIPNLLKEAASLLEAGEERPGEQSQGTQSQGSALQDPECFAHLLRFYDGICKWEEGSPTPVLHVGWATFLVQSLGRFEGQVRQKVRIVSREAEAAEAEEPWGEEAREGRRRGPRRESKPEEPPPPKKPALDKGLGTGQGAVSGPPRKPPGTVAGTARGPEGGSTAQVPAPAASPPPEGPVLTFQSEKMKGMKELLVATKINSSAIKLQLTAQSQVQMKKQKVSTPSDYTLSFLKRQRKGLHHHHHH

With `CCN(C(=O)c1cc(F)ccc1Oc1nncnc1N1CCC2(C1)CN([C@H](CCN(C)CCO)C(C)C)C2)C(C)C` (single isomer, unassigned) [Compound 270, (*R)—N-ethyl-5-fluoro-2-((5-(2-(1-((2-hydroxyethyl)(methyl)amino)-4-methylpentan-3-yl)-2,6-diazaspiro[3.4]octan-6-yl)-1,2,4-triazin-6-yl)oxy)-N-isopropylbenzamide fumarate], the IC50 in experiment [1] (setting [2]) is 0.54 nM; in the experiment with OCI-AML3 cells (Homo sapiens, OCI-AML-3, […]), 480 nM; in the experiment with KO-52 cells (Homo sapiens, […]) it was more than 15000 nM; in the experiment on MOLM14 cells (Homo sapiens, MOLM-14, […]), 140 nM; in the experiment with MEIS1 mRNA (Homo sapiens, MOLM-14, 48 h), 220 nM.

Consider `CCN(C(=O)c1cc(F)ccc1Oc1nncnc1N1CCC2(C1)CN([C@H](CCCN(C)CCCC(=O)N(C)C)C(C)C)C2)C(C)C` [Compound 152, (R)-2-((5-(2-(6-((4-(dimethylamino)-4-oxobutyl)(methyl)amino)-2-methylhexan-3-yl)-2,6-diazaspiro[3.4]octan-6-yl)-1,2,4-triazin-6-yl)oxy)-N-ethyl-5-fluoro-N-isopropylbenzamide fumarate], for which the IC50 in experiment [1] (setting [2]) is 0.19 nM; with OCI-AML3 cells (Homo sapiens, OCI-AML-3, […]), 350 nM; in the experiment with KO-52 cells (Homo sapiens, […]) it was more than 15000 nM; in the experiment on MOLM14 cells (Homo sapiens, MOLM-14, […]), 37 nM; in the experiment with MEIS1 mRNA (Homo sapiens, MOLM-14, 48 h), 87 nM.

Turning to `CCN(C(=O)c1cc(F)ccc1Oc1nncnc1N1CCC2(C1)CN([C@H](CCCNCC(COC)OC)C(C)C)C2)C(C)C` (stereo partly drawn) [Compound 172, 2-((5-(2-((3R)-6-((2,3-dimethoxypropyl)amino)-2-methylhexan-3-yl)-2,6-diazaspiro[3.4]octan-6-yl)-1,2,4-triazin-6-yl)oxy)-N-ethyl-5-fluoro-N-isopropylbenzamide fumarate], the IC50 in experiment [1] (setting [2]) was 0.13 nM; in the experiment with OCI-AML3 cells (Homo sapiens, OCI-AML-3, […]), 38 nM; in the experiment on KO-52 cells (Homo sapiens, […]) it was 13400 nM; with MOLM14 cells (Homo sapiens, MOLM-14, […]) it was 23 nM; in the experiment with MEIS1 mRNA (Homo sapiens, MOLM-14, 48 h) it was 13 nM.

`CCN(C(=O)c1cc(F)ccc1Oc1nnccc1N1CCC2(C1)CN([C@@H](CCCN(C)C)C(C)C)C2)C(C)C` (single isomer, unassigned) [Compound 78, (*S)-2-((4-(2-(6-(dimethylamino)-2-methylhexan-3-yl)-2,6-diazaspiro[3.4]octan-6-yl)pyridazin-3-yl)oxy)-N-ethyl-5-fluoro-N-isopropylbenzamide]: the IC50 in experiment [1] (setting [3]) is 3.69 nM; in the experiment on OCI-AML3 cells, 12200 nM; in the experiment with KO-52 cells, more than 15000 nM; in the experiment with MOLM14 cells it was more than 940 nM; in the experiment on MEIS1 mRNA, more than 1000 nM.

`CCN(C(=O)c1cc(F)ccc1Oc1nncnc1N1CCC2(C1)CN([C@H](CCCN(C)[C@H](CO)COC)C(C)C)C2)C(C)C` [Compound 165, N-ethyl-5-fluoro-2-(5-(2-((R)-6-((R)-1-hydroxy-3-methoxypropan-2-yl)(methyl)amino)-2-methylhexan-3-yl)-2,6-diazaspiro[3.4]octan-6-yl)-1,2,4-triazin-6-yl)oxy)-N-isopropylbenzamide fumarate]: the IC50 was 0.06 nM in experiment [1] (setting [2]); 99 nM in the experiment on OCI-AML3 cells (Homo sapiens, OCI-AML-3, […]); more than 15000 nM in the experiment with KO-52 cells (Homo sapiens, […]); 30 nM in the experiment with MOLM14 cells (Homo sapiens, MOLM-14, […]); 23 nM in the experiment on MEIS1 mRNA (Homo sapiens, MOLM-14, 48 h).

In the case of `CCN(C(=O)c1cc(F)ccc1Oc1nncnc1N1CCC2(C1)CN([C@H](CCCNCC(F)F)C(C)C)C2)C(C)C` [Compound 15, (R)-2-((5-(2-(6-((2,2-difluoroethyl)amino)-2-methylhexan-3-yl)-2,6-diazaspiro[3.4]octan-6-yl)-1,2,4-triazin-6-yl)oxy)-N-ethyl-5-fluoro-N-isopropylbenzamide], the concentration for half-maximal inhibition (IC50) in experiment [1] (setting [2]) is 0.25 nM; with OCI-AML3 cells (Homo sapiens, OCI-AML-3, […]), 460 nM; in the experiment with KO-52 cells (Homo sapiens, […]), 3700 nM; with MOLM14 cells (Homo sapiens, MOLM-14, […]), 100 nM; in the experiment with MEIS1 mRNA (Homo sapiens, MOLM-14, 48 h), 71 nM.

`CCN(C(=O)c1cc(F)ccc1Oc1nncnc1N1CCC2(C1)CN([C@H](CCN(C)CCCOC)C(C)C)C2)C(C)C` (single isomer, unassigned) [Compound 275, (*R)—N-ethyl-5-fluoro-N-isopropyl-2-((5-(2-(1-((3-methoxypropyl)(methyl)amino)-4-methylpentan-3-yl)-2,6-diazaspiro[3.4]octan-6-yl)-1,2,4-triazin-6-yl)oxy)benzamide]: the 50% inhibitory concentration (IC50) in experiment [1] (setting [2]) was 0.66 nM; with OCI-AML3 cells (Homo sapiens, OCI-AML-3, […]) it was 330 nM; in the experiment with KO-52 cells (Homo sapiens, […]), more than 15000 nM; in the experiment on MOLM14 cells (Homo sapiens, MOLM-14, […]), 78 nM; in the experiment with MEIS1 mRNA (Homo sapiens, MOLM-14, 48 h) it was 100 nM.

With `CCN(C(=O)c1cc(F)ccc1Oc1nncnc1N1CCC2(C1)CN([C@H](CCCCN)C(C)C)C2)C(C)C` (single isomer, unassigned) [Compound 209, (*R)-2-((5-(2-(7-amino-2-methylheptan-3-yl)-2,6-diazaspiro[3.4]octan-6-yl)-1,2,4-triazin-6-yl)oxy)-N-ethyl-5-fluoro-N-isopropylbenzamide formate], the 50% inhibitory concentration (IC50) was 0.27 nM in experiment [1] (setting [2]); 240 nM with OCI-AML3 cells (Homo sapiens, OCI-AML-3, […]); more than 15000 nM with KO-52 cells (Homo sapiens, […]); 270 nM in the experiment on MOLM14 cells (Homo sapiens, MOLM-14, […]); 130 nM with MEIS1 mRNA (Homo sapiens, MOLM-14, 48 h).

In the case of “N-ethyl-2-((5-(2-((3*R,5*R)-6-(ethyl(methyl)amino)-5-methoxy-2-methylhexan-3-yl)-2, diazaspiro[3.4]octan-6-yl)-1,2,4-triazin-6-yl)oxy)-5-fluoro-N-isopropylbenzamide [Compound 311]”, the IC50 in experiment [1] (setting [3]) was 1.01 nM; with OCI-AML3 cells, 2880 nM; in the experiment on KO-52 cells it was more than 15000 nM; in the experiment on MOLM14 cells, 510 nM; in the experiment on MEIS1 mRNA it was approximately 630 nM.

On to `CCN(C(=O)c1cc(F)ccc1Oc1nncnc1N1CCC2(C1)CN([C@H](CCNCCCO)C(C)C)C2)C(C)C` (single isomer, unassigned) [Compound 273, (*R)—N-ethyl-5-fluoro-2-((5-(2-(1-((3-hydroxypropyl)amino)-4-methylpentan-3-yl)-2,6-diazaspiro[3.4]octan-6-yl)-1,2,4-triazin-6-yl)oxy)-N-isopropylbenzamide], for which the IC50 in experiment [1] (setting [2]) was 0.21 nM; in the experiment on OCI-AML3 cells (Homo sapiens, OCI-AML-3, […]), 830 nM; with KO-52 cells (Homo sapiens, […]), more than 15000 nM; with MOLM14 cells (Homo sapiens, MOLM-14, […]), 390 nM; in the experiment on MEIS1 mRNA (Homo sapiens, MOLM-14, 48 h), approximately 390 nM.

Regarding `CCN(C(=O)c1cc(F)ccc1Oc1nncnc1N1CCC2(C1)CN([C@H](CCN(C)CCC(N)=O)C(C)C)C2)C(C)C` (single isomer, unassigned) [Compound 280, (*R)-2-((5-(2-(1-((3-amino-3-oxopropyl)(methyl)amino)-4-methylpentan-3-yl)-2,6-diazaspiro[3.4]octan-6-yl)-1,2,4-triazin-6-yl)oxy)-N-ethyl-5-fluoro-N-isopropylbenzamide fumarate], the IC50 is 0.2 nM in experiment [1] (setting [2]); 920 nM in the experiment on OCI-AML3 cells (Homo sapiens, OCI-AML-3, […]); more than 15000 nM in the experiment with KO-52 cells (Homo sapiens, […]); 690 nM in the experiment with MOLM14 cells (Homo sapiens, MOLM-14, […]); 1070 nM in the experiment on MEIS1 mRNA (Homo sapiens, MOLM-14, 48 h).

Turning to `CCN(C(=O)c1cc(F)ccc1Oc1nncnc1N1CCC2(C1)CN([C@H](CCNCCC(N)=O)C(C)C)C2)C(C)C` (single isomer, unassigned) [Compound 278, (*R)-2-((5-(2-(1-((3-amino-3-oxopropyl)amino)-4-methylpentan-3-yl)-2,6-diazaspiro[3.4]octan-6-yl)-1,2,4-triazin-6-yl)oxy)-N-ethyl-5-fluoro-N-isopropylbenzamide fumarate], the IC50 in experiment [1] (setting [2]) was 0.068 nM; in the experiment on OCI-AML3 cells (Homo sapiens, OCI-AML-3, […]) it was 3210 nM; in the experiment with KO-52 cells (Homo sapiens, […]), more than 15000 nM; with MOLM14 cells (Homo sapiens, MOLM-14, […]), more than 940 nM; in the experiment with MEIS1 mRNA (Homo sapiens, MOLM-14, 48 h) it was more than 1000 nM.

One may read the IC50 as the concentration at which inhibition is half-maximal.
